Data set [1] has as its system patients with history of PVR. Put plainly: Side effects observed in the patients.
Data set [2] deals with patients with history of PVR. The data set can be described thus: Voiding trial / ability to void under stepwise drug regimens. In kind it is in vivo, human. On the procedure: In an exemplary embodiment, patients with history of PVR of 100 ml to 2500 ml failed bother standard drug treatment and the Trans Urethral Resection of the Prostate (TURP) procedure or combinations of both treatment options.
(§1) The patients opted for immediate TURP and pharmacological therapy with alpha blocker, bethanechol, and donepezil if needed.
(§2) Bethanechol was then added to maximal recommended doses, according to package insert or Physician Desk Reference (PDR), which was 200 mg per day in divided doses. […] Bethanocol was either added at 75 mg five times per day to their existing regimen or patients were switched to betahnocol alone at 75 mg five time per day.
(§3) Subsequently donepezil was added in amounts ranging from 5 or 10 to their respective regimens.
While all patients in this series were males, females can also benefit from the present combination, particularly if no obstruction exists in their urinary tract.

The subject of data set [3] is patients with history of PVR. Put plainly: Post void residual (PVR) before and after combination regimen in patients with urinary retention. Conditions: donepezil 5 or 10 added to respective regimens (alpha blocker, bethanechol); all patients. Format: in vivo, human. As to the method: as §1, §2, §3
[4] abbreviates: silodosin 8 mg added to tamsulosin.

In the case of `CC(C[N+](C)(C)C)OC(N)=O` (centres unmarked) [bethanechol, carbamyl-methylcholine chloride], the side effects result in data set [1] (bethanechol at 200 mg per day or 375 mg per day, eight patients) is “no side effects”.
`COc1cc2c(cc1OC)C(=O)C(CC1CCN(Cc3ccccc3)CC1)C2` (centres unmarked) [donepezil]: the ability to void entry in data set [2] (donepezil 5 or 10 added to respective regimens, each patient) is recorded as “able to void”. The bladder emptying result in data set [2] (eight sequentially seen patients, donepezil with bethanechol) was “potentiated bethanechol to facilitate bladder emptying”. For the same compound, the frequency of voiding result in data set [2] (upon continuation of the regimen with donepezil, all patients) is reported as “increasing frequency of voiding”. Also, the “reduction in PVR upon completion of the trial” value in data set [3] was “more than 75%”.
In the case of `C[C@H](Cc1cc2c(c(C(N)=O)c1)N(CCCO)CC2)NCCOc1ccccc1OCC(F)(F)F` [silodosin], in data set [1] (setting [4]), the side effects result is reported as “no extra side effects”. Also, the voiding trial result in data set [2] (setting [4]) is “failed to the voiding trial”.
Regarding `CCOc1ccccc1OCCN[C@H](C)Cc1ccc(OC)c(S(N)(=O)=O)c1` [tamsulosin], the voiding trial result in data set [2] (tamsulosin 0.4 mg or 0.8 mg per day) was “failed a voiding trial”.

Source of the values: patent US10357487B2, “Combinations of acetylcholinesterase inhibitors and muscarinic agonists and methods of use thereof” (priority 2015, dated 2019).
